# In patent US20070254956A1, “Medicament for Therapeutic and/or Preventive Treatment of Restenosis or Reocclusion After Vascular Recanalization Operation” (priority 2003, published 2007):
# System: proliferation of neointima
# Assay: Test for inhibition of proliferation of neointima in a mouse model of femoral arterial angiopathy
# Format: in vivo
# Details: male C57BL/6 mouse, 1 mg/kg/day intraperitoneally for 10 days
# Procedure: As an angiopathy model resulting from a vascular recanalization operation, a treatment was carried out in which 0.015 inch spring wires were implanted into both […] of 20-25 g male C57BL/6 mouse under anesthesia, and placed for 1 minute to extend the arteries. After the operation, the compound represented by the formula (I) was administered 1 mg/kg/day intraperitoneally for 10 days. Blood vessels were extirpated 4 weeks after the operation and histopathologically examined. Influences between the drug administered group and non-administered group on the cross-section ratio of neointima and tunica media (neointima/tunica media) were compared.
smiles,measurement,setting,value
O=C(Nc1cc(C(F)(F)F)cc(C(F)(F)F)c1)c1cc(Cl)ccc1O [compound (I)],cross-section ratio of neointima and tunica media (neointima/tunica media),"wire-injured femoral arteries, vessels examined 4 weeks after operation, non-administered group 2.01±0.15",1.01±0.27
same,inhibition of the proliferation of neointima after the angiopathy,4 weeks after operation,strongly inhibited the proliferation of neointima
